# How the values were obtained:
# Assay type in all cases: cell-based
# S. aureus Oxford = assay: MIC by agar-dilution technique, Diagnostic Sensitivity Test, S. aureus Oxford; details: Staphylococcus aureus, inoculum 10^4 CFU/spot
# Description: (§1) The following results were obtained for representative compounds on a standard in vitro test system using Diagnostic Sensitivity Test. The antibacterial activity is described in terms of the minimum inhibitory concentration (MIC) determined by the agar-dilution technique with an inoculum size of 10^4 CFU/spot.
# E. coli DCO = assay: MIC by agar-dilution technique, Diagnostic Sensitivity Test, E. coli DCO; details: Escherichia coli, inoculum 10^4 CFU/spot
# Description: as §1
# P. morganii I + 001 = assay: MIC by agar-dilution technique, Diagnostic Sensitivity Test, P. morganii I + 001; details: Morganella morganii, inoculum 10^4 CFU/spot
# Description: as §1
# [1] = test system: Enterobacter cloacae P99-; assay: MIC by agar-dilution technique, Diagnostic Sensitivity Test, Enterobacter cloacae P99-
# Description: as §1
# B. fragilis AMP S = assay: MIC by agar-dilution technique, Diagnostic Sensitivity Test, B. fragilis AMP S; details: Bacteroides fragilis, inoculum 10^4 CFU/spot
# Description: as §1
smiles,measurement,setting,value
"C[C@@H](O)[C@H]1C(=O)N2C(C(=O)O)=C(S[C@@H]3CN[C@H](C(=O)Nc4csc(C(=O)O)c4)C3)[C@H](C)[C@H]12 [Example 1, (1R,5S,6S,8R,2'S,4'S)-2-(2-(2-Carboxy-4-thienylcarbamoyl)pyrrolidin-4-ylthio)-6-(1-hydroxyethyl)-1-methylcarbapenem-3-carboxylic acid]",MIC,S. aureus Oxford,125 ng/mL
same,MIC,E. coli DCO,8 ng/mL
same,MIC,P. morganii I + 001,8 ng/mL
same,MIC,[1],8 ng/mL
same,MIC,B. fragilis AMP S,125 ng/mL
